Results reported in patent publication US11564913B2, “Compositions and methods for treating cancer” (Children's Hospital Medical Center, priority 2019, dated 2023).

Assays:
[1] = tested on: active Rac (Rac-GTP) in p190-BCR-ABL Ba/F3 cells; assay: Active GTPase pull-down (GST-PAK-GBD); type: cell-based, murine
Experimental: (§1) FIG. 13: IODVA1 decreases Rac activation and signaling. (A) Ba/F3 cells expressing p190-BCR-ABL1 were treated with IODVA1 (3 μM) as indicated and levels of active Rac (Rac-GTP) were assessed by pull-down using GST-PAK-GBD, followed by immunoblotting (upper panel) and densitometric quantification (lower panel). (B) Flow-cytometry analysis of pJNK, pS6, p4EBP, pPAK1, and pAKT of Ba/F3 cells expressing Mieg3 empty vector (light and dark blue) or p190-BCR-ABL1 (light and dark salmon) and treated with vehicle control or IODVA1 (3 μM) for 30 min. (C) Representative histogram data of the cell cycle analysis of Ba/F3 cells expressing p190-BCR-ABL and treated with vehicle control or IODVA1 (1, 3, and 10 μM) for 20 h. (D) Quantification of the average number of colonies of bone marrow wild-type (black) and Rac1^Δ/Δ+Rac2^−/− (red) p190-BCR-ABL1 leukemic cells treated with vehicle control or IODVA1 (IO1, 1 μM). ns—not significant, * p<0.05, ** p<0.01, *** p<0.001. (E) As in FIG. 13A, but cells were incubated for a fixed amount of time (1 h) at the indicated IODVA1 concentrations. (F) Ba/F3 cells expressing p190-BCR-ABL1 were treated with IODVA1 (3 μM) and lysed at the indicated times. Cell lysates were separated on SDS-PAGE and immunoblotted for pPAK(T423), pBAD(S136), and BAD. (G) Ba/F3 cells expressing p190-BCR-ABL1 were treated with IODVA1 (3 μM) and levels of active Cdc42 (Cdc42-GTP) and Rho (Rho-GTP) were assessed by pull-down at the indicated times using GST-PAK-GBD and GST-Rhotekin respectively, followed by immunoblotting (left panel) and densitometric quantification (right panel). (H) Morphology of GFP^+ leukemic colonies (left panel). […]
(§2) Having shown that IODVA1 prevents formation of F-actin suprastructures, such as lamellipodia and circular dorsal ruffles, within minutes of cell incubation (FIGS. 5A-5B and Gasilina et al., 2020) we focused on Rac. […] We thus tested if IODVA1 inhibits Rac activation and measured levels of Rac-GTP during treatment using PAK-GBD (GTPase-binding domain). […]

[2] = tested on: active Cdc42 in p190-BCR-ABL Ba/F3 cells; assay: Active GTPase pull-down (GST-PAK-GBD); type: cell-based, murine; conditions: 3 μM
Experimental: as §1, §2

[3] = tested on: murine p190-BCR-ABL leukemic progenitor cells (EGFP+/B220dim); assay: Cell cycle analysis, BrdU incorporation and flow cytometry; type: cell-based; conditions: for percentage of cells in the G2+M phases: 20 h (SD, N=3)
Experimental: FIG. 13: IODVA1 decreases Rac activation and signaling. (A) Ba/F3 cells expressing p190-BCR-ABL1 were treated with IODVA1 (3 μM) as indicated and levels of active Rac (Rac-GTP) were assessed by pull-down using GST-PAK-GBD, followed by immunoblotting (upper panel) and densitometric quantification (lower panel). (B) Flow-cytometry analysis of pJNK, pS6, p4EBP, pPAK1, and pAKT of Ba/F3 cells expressing Mieg3 empty vector (light and dark blue) or p190-BCR-ABL1 (light and dark salmon) and treated with vehicle control or IODVA1 (3 μM) for 30 min. (C) Representative histogram data of the cell cycle analysis of Ba/F3 cells expressing p190-BCR-ABL and treated with vehicle control or IODVA1 (1, 3, and 10 μM) for 20 h. (D) Quantification of the average number of colonies of bone marrow wild-type (black) and Rac1^Δ/Δ+Rac2^−/− (red) p190-BCR-ABL1 leukemic cells treated with vehicle control or IODVA1 (IO1, 1 μM). ns—not significant, * p<0.05, ** p<0.01, *** p<0.001. (E) As in FIG. 13A, but cells were incubated for a fixed amount of time (1 h) at the indicated IODVA1 concentrations. (F) Ba/F3 cells expressing p190-BCR-ABL1 were treated with IODVA1 (3 μM) and lysed at the indicated times. Cell lysates were separated on SDS-PAGE and immunoblotted for pPAK(T423), pBAD(S136), and BAD. (G) Ba/F3 cells expressing p190-BCR-ABL1 were treated with IODVA1 (3 μM) and levels of active Cdc42 (Cdc42-GTP) and Rho (Rho-GTP) were assessed by pull-down at the indicated times using GST-PAK-GBD and GST-Rhotekin respectively, followed by immunoblotting (left panel) and densitometric quantification (right panel). (H) Morphology of GFP^+ leukemic colonies (left panel). Western blot analysis of Rac1 and Rac2 protein expression in Rac1^Δ/Δ+Rac2^−/− cells post poly-I:C injections (right panel). (I) Intrinsic (blue line) and p50GAP-stimulated GTP-hydrolysis reaction in the presence (red line) or absence (black line) of IODVA1. (J) Sedimentation assay of liposomal Rac1-GDP in the presence of IODVA1 (2 μM). Rac1 was visualized by immunoblotting from pellet (p) and soluble (s) fractions. (K) Stopped-flow measurement of GDI (10 μM) interaction with fluorescently-labelled Rac1 in the absence (black line) or presence (orange line) of IODVA1.
To further test this hypothesis, we analyzed the cell cycle of murine p190-BCR-ABL leukemic progenitor cells (EGFP^+/B220^dim) incubated with vehicle control or IODVA1 (1-10 μM) for 20 h, followed by in vitro BrdU incorporation and flow cytometry analysis (FIG. 13C). […] It increased the percentage of cells in the G2+M phases from 7±1% (SD, N=3) in the presence of vehicle control to 22±6.6, 32±3, and 36±7% (SD, N=3) at 1, 3, and 10 μM, respectively. At 1 μM, it reduced the S-phase 8-fold (p=0.0002) and increased apoptosis by at least 5.3-times (p=0.007). Therefore, IODVA1 induces a G2/M arrest.
Cell cycle was analyzed by using in vitro incorporation of 5-Bromo-2-deoxyuridine using Brdu Flow kit (BD Pharmingen, Cat #552598). Briefly, mice leukemic progenitors were incubated with […] BrdU solution for 45 minutes, cells were further fixed and permeabilized. DNAse treatment was done according to the instructions and stained with anti BrdU and apoptosis was analyzed by 7-AAD staining through flow cytometry analysis.

## OC1(c2ccccn2)N=C(Nc2nc3ccccc3[nH]2)N=C1c1ccccn1 (stereo not drawn) [IODVA1, (Z)-2-((1H-benzo[d]imidazol-2-yl)imino)-4,5-di(pyridin-2-yl)-2,5-dihydro-1H-imidazol-5-ol]
[1]; 3 μM, 10-15 minutes post incubation
  decrease in the levels of active Rac: 70%
[1]; Mus musculus, BaF3, 1 h, read-out: IC50, Rac activation
  IC50: 1000 nM
[2]
  effect on active Cdc42: less effective
[3]; 1 μM, vehicle 7±1%
  percentage of cells in the G2+M phases: 22±6.6%
[3]; 1 μM, p=0.0002
  reduction of the S-phase: 8 fold
[3]; 1 μM, p=0.007
  increase in apoptosis: at least 5.3 times
[3]; 3 μM
  percentage of cells in the G2+M phases: 32±3%
[3]; 10 μM
  percentage of cells in the G2+M phases: 36±7%
[3]; 1-10 μM, 20 h
  G0+G1 phase: did not affect
